Measured values taken from patent US6825170B2, “6-O-acyl ketolide antibacterials” (Ortho-McNeil Pharmaceutical, Inc., priority 2001, dated 2004).
≈ marks a conversion by molar mass, not a printed value.

What was measured:
Experiment in all cases: MIC, microdilution broth method (NCCLS)
Type in all cases: cell-based
Settings in all cases: 35° C., 16-20 hours
[1] = tested on: H. influenzae ATCC49247
Experimental: (§1) Minimal inhibitory concentration (MIC) has been an indicator of in vitro antibacterial activity widely used in the art. The in vitro antimicrobial activity of the compounds was determined by the microdilution broth method following the test method from the National Committee for Clinical Laboratory Standards (NCCLS). This method is described in the NCCLS Document M7-A4, Vol.17, No.2, “Methods for Dilution Antimicrobial Susceptibility Test for Bacteria that Grow Aerobically—Fourth Edition”, which is incorporated herein by reference.
(§2) In this method two-fold serial dilutions of drug in cation adjusted Mueller-Hinton broth are added to wells in microdilution trays. The test organisms are prepared by adjusting the turbidity of actively growing broth cultures so that the final concentration of test organism after it is added to the wells is approximately 5×10^4 CFU/well.
(§3) Following inoculation of the microdilution trays, the trays are incubated at 35° C. for 16-20 hours and then read. […] The amount of growth in the wells containing the test compound is compared with the amount of growth in the growth-control wells (no test compound) used in each tray. As set forth in Table 1, compounds of the present invention were tested against a variety of Gram positive and Gram negative pathogenic bacteria resulting in a range of activities depending on the organism tested.

[2] = tested on: S. pneumoniae ATCC49619
Experimental: as §1, §2, §3

[3] = tested on: S. aureus ATCC29213
Experimental: as §1, §2, §3

[4] = tested on: E. faecalis ATCC29212
Experimental: as §1, §2, §3

Row | SMILES | MIC (E: H. influenzae ATCC49247) [1] [µg/mL] | MIC (D: S. pneumoniae ATCC49619) [2] [µg/mL] | MIC (B: S. aureus ATCC29213) [3] [µg/mL] | MIC (C: E. faecalis ATCC29212) [4] [µg/mL]
1 | CC[C@H]1OC(=O)[C@H](C)C(=O)[C@H](C)[C@@H](O[C@@H]2O[C@H](C)C[C@H](N(C)C)[C@H]2O)[C@](C)(OC(=O)NNC(=O)c2ccccc2)C[C@@H](C)C(=O)[C@H](C)[C@H]2NC(=O)O[C@@]21C [Compound 813] | 16 (≈ 21 µM) | 0.25 (≈ 0.329 µM) | 16 (≈ 21 µM) | 1 (≈ 1.31 µM)
2 | CC[C@H]1OC(=O)[C@H](C)C(=O)[C@H](C)[C@@H](O[C@@H]2O[C@H](C)C[C@H](N(C)C)[C@H]2O)[C@](C)(OC(=O)NNC(=O)OCc2ccccc2)C[C@@H](C)C(=O)[C@H](C)[C@H]2NC(=O)O[C@@]21C [Compound 814] | 8 (≈ 10.1 µM) | 0.12 (≈ 0.152 µM) | 8 (≈ 10.1 µM) | 0.5 (≈ 0.632 µM)
3 | CC[C@H]1OC(=O)[C@H](C)C(=O)[C@H](C)[C@@H](O[C@@H]2O[C@H](C)C[C@H](N(C)C)[C@H]2O)[C@](C)(OC(=O)NNC(=O)N(C)c2ccccc2)C[C@@H](C)C(=O)[C@H](C)[C@H]2NC(=O)O[C@@]21C [Compound 815] | 16 (≈ 20.3 µM) | 0.25 (≈ 0.316 µM) | 4 (≈ 5.06 µM) | 1 (≈ 1.27 µM)
4 | CC[C@H]1OC(=O)[C@H](C)C(=O)[C@H](C)[C@@H](O[C@@H]2O[C@H](C)C[C@H](N(C)C)[C@H]2O)[C@](C)(OC(=O)NN2CCCCC2)C[C@@H](C)C(=O)[C@H](C)[C@H]2NC(=O)O[C@@]21C [Compound 816] | 16 (≈ 22.1 µM) | 0.5 (≈ 0.69 µM) | 16 (≈ 22.1 µM) | 1 (≈ 1.38 µM)
5 | CC[C@H]1OC(=O)[C@H](C)C(=O)[C@H](C)[C@@H](O[C@@H]2O[C@H](C)C[C@H](N(C)C)[C@H]2O)[C@](C)(OC(=O)N(C)NCc2ccc(-c3cnccn3)cc2)C[C@@H](C)C(=O)[C@H](C)[C@H]2NC(=O)O[C@@]21C [Compound 817] | 8 (≈ 9.54 µM) | 0.06 (≈ 0.0715 µM) | 2 (≈ 2.38 µM) | 0.25 (≈ 0.298 µM)
6 | CC[C@H]1OC(=O)[C@H](C)C(=O)[C@H](C)[C@@H](O[C@@H]2O[C@H](C)C[C@H](N(C)C)[C@H]2O)[C@](C)(OC(=O)N(C)NCc2ccc(-c3ccccn3)cc2)C[C@@H](C)C(=O)[C@H](C)[C@H]2NC(=O)O[C@@]21C [Compound 818] | 8 (≈ 9.55 µM) | 0.06 (≈ 0.0716 µM) | 4 (≈ 4.77 µM) | 0.25 (≈ 0.298 µM)
7 | CC[C@H]1OC(=O)[C@H](C)C(=O)[C@H](C)[C@@H](O[C@@H]2O[C@H](C)C[C@H](N(C)C)[C@H]2O)[C@](C)(OC(=O)N(C)N(C)Cc2ccc(-c3cnccn3)cc2)C[C@@H](C)C(=O)[C@H](C)[C@H]2NC(=O)O[C@@]21C [Compound 819] | >16 | 0.25 (≈ 0.293 µM) | 16 (≈ 18.8 µM) | 1 (≈ 1.17 µM)
8 | CC[C@H]1OC(=O)[C@H](C)C(=O)[C@H](C)[C@@H](O[C@@H]2O[C@H](C)C[C@H](N(C)C)[C@H]2O)[C@](C)(OC(=O)N(C)NCCc2ccc(-c3cnccn3)cc2)C[C@@H](C)C(=O)[C@H](C)[C@H]2NC(=O)O[C@@]21C [Compound 820] | 8 (≈ 9.38 µM) | 0.06 (≈ 0.0703 µM) | 1 (≈ 1.17 µM) | 0.25 (≈ 0.293 µM)
9 | CC[C@H]1OC(=O)[C@H](C)C(=O)[C@H](C)[C@@H](O[C@@H]2O[C@H](C)C[C@H](N(C)C)[C@H]2O)[C@](C)(OC(=O)N(C)N(C)CCc2ccc(-c3cnccn3)cc2)C[C@@H](C)C(=O)[C@H](C)[C@H]2NC(=O)O[C@@]21C [Compound 821] | 16 (≈ 18.5 µM) | 0.12 (≈ 0.138 µM) | 2 (≈ 2.31 µM) | 0.5 (≈ 0.577 µM)
10 | CC[C@H]1OC(=O)[C@H](C)C(=O)[C@H](C)[C@@H](O[C@@H]2O[C@H](C)C[C@H](N(C)C)[C@H]2O)[C@](C)(OC(=O)Nn2ccc(-c3ccc(-c4ncccn4)cc3)c2)C[C@@H](C)C(=O)[C@H](C)[C@H]2NC(=O)O[C@@]21C [Compound 824] | 16 (≈ 18.6 µM) | 0.12 (≈ 0.139 µM) | 2 (≈ 2.32 µM) | 1 (≈ 1.16 µM)
11 | CC[C@H]1OC(=O)[C@H](C)C(=O)[C@H](C)[C@@H](O[C@@H]2O[C@H](C)C[C@H](N(C)C)[C@H]2O)[C@](C)(OC(=O)NN=Cc2ccc(-c3ncccn3)cc2)C[C@@H](C)C(=O)[C@H](C)[C@H]2NC(=O)O[C@@]21C [Compound 825] | 16 (≈ 19.4 µM) | 0.12 (≈ 0.146 µM) | 4 (≈ 4.86 µM) | 0.5 (≈ 0.608 µM)
